# Test results reported in article PMC10518717, “High-Throughput Screening and Proteomic Characterization of Compounds Targeting Myeloid-Derived Suppressor Cells” (Molecular & Cellular Proteomics : MCP, 2023).
# Key:
# [1] = tested on: HDAC1/2 and the CoREST complex; conditions: NUP-MDSC lysate; competition with iCor pulldown
# Experimental: In vitro–differentiated NUP-MDSC were harvested, washed twice with PBS, and cell pellets were stored at −80 °C. For lysis, the pellets were slowly thawed at 20 °C and mixed with lysis buffer (0.8% Igepal, 50 mM Tris–HCl pH 7.5, 5% glycerol, 1.5 mM MgCl2, 150 mM NaCl, 1 mM Na3VO4, 25 mM NaF, 1 mM DTT, and supplemented with protease inhibitors (SigmaFast, Sigma) and phosphatase inhibitors (prepared in-house according to phosphatase inhibitor cocktail 1, 2, and 3 from Sigma-Aldrich)). Before usage, the cell lysates were cleared from debris by ultracentrifugation (52,000×g for 20 min at 4 °C); protein concentration was determined by Bradford assay. […]
# Peptides were analyzed via LC-MS/MS on a Dionex Ultimate3000 nano HPLC coupled to an Orbitrap Fusion Lumos mass spectrometer (Thermo Fisher Scientific). […]
# The mass spectrometer was operated in data-dependent mode, automatically switching between MS1 and MS2 spectra. […] Up to 12 peptide precursors were isolated (isolation width of 1.2 Th, maxIT of 75 ms, AGC value of 2e5), fragmented by HCD using 30% NCE, and analyzed in the OT at a resolution of 15,000. […]
# Protein identification and quantification was performed using MaxQuant (v 1.6.1.0) by searching the LC-MS/MS data against all canonical protein sequences as annotated in the Swissprot reference database (v03.12.15, 20,193 entries, downloaded 22.03.2016) using the embedded search engine Andromeda. […]
# NUP-MDSC = assay: Global proteome expression profiling of compound-treated NUP-MDSC (TMT LC-MS/MS); format: cell-based, mouse; conditions: 72 h; for log2 FC ENT_300/DMSO: 300 nM
# Experimental: After treatments, medium was removed, cells were washed twice with PBS, and the cell pellets were further subjected to proteomic sample preparation.
# The cell pellet was reconstituted in 2% SDS in 50 mM Tris–HCl pH 7.5 and lysed by heating to 95 °C for 10 min. One microliter of 100% TFA was added to each sample to hydrolyze DNA, and the pH was subsequently adjusted to 8.5 with 3 M Tris solution. Disulfide bonds were reduced with 10 mM DTT for 45 min at 37 °C, followed by alkylation of cysteines with 55 mM CAA for 30 min at room temperature. Prior to tryptic digestion, the detergent was removed from lysates by SP3 cleanup on an Agilent BRAVO system (Agilent Technologies), following the protocol first described by Hughes et al. ([34]). Briefly, lysate containing 200 μg of protein was mixed with SP3 beads, and proteins were precipitated onto a 50:50 mixture of Sera-Mag Speed Bead types A and B (Thermo Fisher Scientific) in 58% acetonitrile. Beads were washed three times with 80% ethanol in water and once with acetonitrile. Tryptic digest was performed in 100 μl of digestion buffer (2 mM CaCl2 in 25 mM Hepes, pH 8.5) with a 1:50 enzyme-to-protein ratio. Bead-precipitated proteins were digested at 37 °C overnight. On the next day, the supernatant of each sample was transferred to a new well and vacuum dried.
# Dried peptides were reconstituted in water and labeled with the respective TMT10plex-labeling reagent as described previously ([35]) with a protein to tandem mass tag (TMT) reagent ratio of 1:2. Labeled samples were pooled, vacuum dried, and reconstituted in 0.1% formic acid (FA) prior to desalting on SepPAC50 columns (waters corp.). Peptides were fractionated using a Dionex Ultra 3000 HPLC system with a Waters XBridge BEH130 C18 3.5 um 2.1 × 250 mm column as described previously ([36]). Ninety-six fractions were collected and pooled to 48. For the full proteome analysis, one fifth of each fraction was transferred to a new 96-well plate and both plates were vacuum dried. For the phosphopeptide analysis, dried peptides were reconstituted in 55 μl 0.1% TFA in 30% ACN, pooled from 48 to 12 fractions, and mixed with 70 μl priming buffer (0.1% TFA, 100% ACN). Phosphopeptides were enriched from each of the 12 fractions using Fe(III)-IMAC-NTA cartridges on the AssayMAP BRAVO (Agilent Technologies) platform as described previously ([36]). Phosphopeptides were eluted with 60 μl 1% ammonia, vacuum dried, and stored at −20 °C prior to LC-MS/MS analysis.
# The Fusion Lumos was operated in data-dependent acquisition and positive ionization mode. Samples were measured employing a MS3 method. In brief, full scan MS1 spectra were recorded in the orbitrap (OT) from 360 to 1560 m/z at 60,000 resolution using an automatic gain control (AGC) target value of 4e5 charges and a maximum injection time (maxIT) of 50 ms. Iontrap-MS2 spectra for peptide identification were acquired using higher energy collision dissociation (HCD) fragmentation with 32% normalized collision energy (NCE), an isolation window of 0.6 m/z, and an AGC target value of 1.2e4 charges. To obtain quantitative information on TMT reporter ions, each peptide precursor was fragmented again as for MS2 analysis followed by synchronous selection of the up to eight most intense peptide fragments in the iontrap ([37]) and further fragmentation via HCD using a NCE of 55%. The MS3 scan was recorded in the OT at 50,000 resolution (scan range 100–1000 m/z, isolation window of 1.2 m/z, AGC of 1e5 charges, maxIT of 86 ms). The cycle time was 1.2 s, and the dynamic exclusion lasted for 50 s.
# Peptide, protein, and phosphorylation site identification and quantification were performed with MaxQuant software (v. 1.6.3.3, https://www.maxquant.org/) with standard settings for reporter ion MS3 unless described otherwise ([39]). Isotope impurities of the TMT lot were specified to allow MaxQuant the automated correction of TMT intensities. […]
# NUP-MDSC cell lysate [2] = assay: Chemoproteomic competition pulldown assay (iCor/iEnt affinity matrix), proteome-wide; format: binding, mouse; conditions: NUP-MDSC lysate; iCor and iEnt
# Source text: (§1) Targets of the inhibitors were annotated manually.
# NUP-MDSC cell lysate [3] = target: T1, NUP-MDSC cell lysate (Mus musculus, UniProt G5E8Z3); assay: as above; format: binding; conditions: protein 2310050C09Rik (G5E8Z3)
# T1 construct: endogenous in cells; host or cells: mouse NUP-MDSC (lysate)
# T1 sequence (G5E8Z3 1-280): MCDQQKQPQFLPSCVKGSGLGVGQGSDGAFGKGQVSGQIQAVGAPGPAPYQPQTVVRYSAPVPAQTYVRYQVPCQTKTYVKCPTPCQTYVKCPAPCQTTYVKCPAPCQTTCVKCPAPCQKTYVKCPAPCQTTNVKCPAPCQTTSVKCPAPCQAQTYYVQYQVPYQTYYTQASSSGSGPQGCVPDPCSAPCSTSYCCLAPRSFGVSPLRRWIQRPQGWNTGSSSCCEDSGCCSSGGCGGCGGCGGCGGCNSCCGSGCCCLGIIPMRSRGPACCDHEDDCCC
# Source text: as §1
# NUP-MDSC cell lysate [4] = target: T2, NUP-MDSC cell lysate (Mus musculus, UniProt Q8WUR0); assay: as above; format: binding; conditions: protein 1600014C10Rik (Protein C19orf12 homolog)
# T2 construct: endogenous in cells; host or cells: mouse NUP-MDSC (lysate)
# T2 sequence (Q8WUR0 1-141): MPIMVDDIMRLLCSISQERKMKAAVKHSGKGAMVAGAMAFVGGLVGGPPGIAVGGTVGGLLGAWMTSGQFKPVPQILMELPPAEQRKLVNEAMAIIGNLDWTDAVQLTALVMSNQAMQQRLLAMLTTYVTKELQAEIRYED
# Source text: as §1
compound,measurement,setting,value
Nc1ccccc1NC(=O)c1ccc(CNC(=O)OCc2cccnc2)cc1 [entinostat],target affinity,[1],high affinities
same,"protein expression of Il1a, Il1b, and Il1rn",NUP-MDSC; 30 and 300 nM,dose-dependently upregulated
same,"protein level of Cxcr3, Ccl9, and Ccr5","NUP-MDSC; 30 and 300 nM, dose-dependent manner",increased
same,log2 FC ENT_300/DMSO,NUP-MDSC; protein Cask,-0.505
same,log2 FC ENT_300/DMSO,NUP-MDSC; protein Hsf1,-0.1449
same,log2 FC ENT_300/DMSO,NUP-MDSC; protein Inpp5j,0.4672
same,log2 FC ENT_300/DMSO,NUP-MDSC; protein Magohb;Magoh,0.03399
same,additional targets identified,NUP-MDSC cell lysate [2],No additional targets
same,Intensity 3nM,NUP-MDSC cell lysate [3]; Entinostat 3nM,4673000
same,LFQ intensity 3nM,NUP-MDSC cell lysate [3]; Entinostat 3nM,0
same,Intensity 10nM,NUP-MDSC cell lysate [3]; Entinostat 10nM,39076000
same,LFQ intensity 10nM,NUP-MDSC cell lysate [3]; Entinostat 10nM,48940000
same,Intensity 30nM,NUP-MDSC cell lysate [3]; Entinostat 30nM,0
same,LFQ intensity 30nM,NUP-MDSC cell lysate [3]; Entinostat 30nM,0
same,Intensity 100nM,NUP-MDSC cell lysate [3]; Entinostat 100nM,0
same,LFQ intensity 100nM,NUP-MDSC cell lysate [3]; Entinostat 100nM,0
same,Intensity 300nM,NUP-MDSC cell lysate [3]; Entinostat 300nM,63615000
same,LFQ intensity 300nM,NUP-MDSC cell lysate [3]; Entinostat 300nM,92239000
same,Intensity 1000nM,NUP-MDSC cell lysate [3]; Entinostat 1000nM,0
same,LFQ intensity 1000nM,NUP-MDSC cell lysate [3]; Entinostat 1000nM,0
same,Intensity 3000nM,NUP-MDSC cell lysate [3]; Entinostat 3000nM,17259000
same,LFQ intensity 3000nM,NUP-MDSC cell lysate [3]; Entinostat 3000nM,18337000
same,Intensity 30000nM,NUP-MDSC cell lysate [3]; Entinostat 30000nM,37204000
same,LFQ intensity 30000nM,NUP-MDSC cell lysate [3]; Entinostat 30000nM,38240000
same,Intensity 3nM,NUP-MDSC cell lysate [4]; Entinostat 3nM,20883000
same,LFQ intensity 3nM,NUP-MDSC cell lysate [4]; Entinostat 3nM,42321000
same,Intensity 10nM,NUP-MDSC cell lysate [4]; Entinostat 10nM,34795000
same,LFQ intensity 10nM,NUP-MDSC cell lysate [4]; Entinostat 10nM,40587000
same,Intensity 30nM,NUP-MDSC cell lysate [4]; Entinostat 30nM,27408000
same,LFQ intensity 30nM,NUP-MDSC cell lysate [4]; Entinostat 30nM,39634000
same,Intensity 100nM,NUP-MDSC cell lysate [4]; Entinostat 100nM,29285000
same,LFQ intensity 100nM,NUP-MDSC cell lysate [4]; Entinostat 100nM,35458000
same,Intensity 300nM,NUP-MDSC cell lysate [4]; Entinostat 300nM,23203000
same,LFQ intensity 300nM,NUP-MDSC cell lysate [4]; Entinostat 300nM,36056000
same,Intensity 1000nM,NUP-MDSC cell lysate [4]; Entinostat 1000nM,28303000
same,LFQ intensity 1000nM,NUP-MDSC cell lysate [4]; Entinostat 1000nM,37293000
same,Intensity 3000nM,NUP-MDSC cell lysate [4]; Entinostat 3000nM,35943000
same,LFQ intensity 3000nM,NUP-MDSC cell lysate [4]; Entinostat 3000nM,42228000
same,Intensity 30000nM,NUP-MDSC cell lysate [4]; Entinostat 30000nM,27116000
same,LFQ intensity 30000nM,NUP-MDSC cell lysate [4]; Entinostat 30000nM,26320000
